Counter-ions that a name gives are not always drawn. Calls of active or inactive are those of the source. The calls are words filed in the database; no cut-off is given here.
Key:
Rattus norvegicus [1] = species on record: Rattus norvegicus; assay: animal or person; format: functional; conditions: Wistar, ip, route intraperitoneal
Description: Anticataleptic activity in albino Wistar rat assessed as inhibition of perphenazine-induced catatonia at 2 mg/kg, ip preincubated for 15 mins followed by perphenazine challenge measured at 3 hrs relative to control

Rattus norvegicus [2] = species on record: Rattus norvegicus; assay: animal or person; format: functional; conditions: Wistar, ip, route intraperitoneal; remark: listed apart in the source
Description: Anticataleptic activity in albino Wistar rat assessed as inhibition of perphenazine-induced catatonia at 2 mg/kg, ip preincubated for 15 mins followed by perphenazine challenge measured at 2 hrs relative to control

Rattus norvegicus [3] = species on record: Rattus norvegicus; assay: animal or person; format: functional; conditions: Wistar, ip, route intraperitoneal; remark: listed apart in the source
Description: Anticataleptic activity in albino Wistar rat assessed as inhibition of perphenazine-induced catatonia at 2 mg/kg, ip preincubated for 15 mins followed by perphenazine challenge measured at 0.5 hrs relative to control

Rattus norvegicus [4] = species on record: Rattus norvegicus; assay: animal or person; format: functional; conditions: Wistar, ip, route intraperitoneal; remark: listed apart in the source
Description: Anticataleptic activity in albino Wistar rat assessed as inhibition of perphenazine-induced catatonia at 2 mg/kg, ip preincubated for 15 mins followed by perphenazine challenge measured at 1 hr relative to control

[5] = Octanol-phosphate buffer partition coefficient, Kp of the compound at pH 7.4; format: physicochemical
Rattus norvegicus [6] = species on record: Rattus norvegicus; conditions: Wistar, Jejunum;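 on pD'2: muscarinic receptor antagonism measured as block of acetylcholine-evoked contraction in isolated jejunum, tissue exposed to test compound for 2 min before the acetylcholine challenge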
Description: Antagonist activity at muscarinic acetylcholine receptor in Wistar rat jejunum assessed as inhibition of acetylcholine-induced contraction preincubated for 2 mins followed by acetylcholine challenge

Oryctolagus cuniculus = assay: Central dopaminergic activity in New Zealand rabbit assessed as change in colonic temperature at 5 mg/kg, iv measured every 15 mins for 2 hrs by thermistor probe attached telethermometric analysis; format: functional, organism-based; parameters: dose 5 mg/kg

Compound	inhibition in vivo at 2 mg/kg (Rattus norvegicus [1]) [%]	inhibition in vivo at 2 mg/kg (Rattus norvegicus [2]) [%]	inhibition in vivo at 2 mg/kg (Rattus norvegicus [3]) [%]	inhibition in vivo at 2 mg/kg (Rattus norvegicus [4]) [%]	Kp [5]	pD'2 (Rattus norvegicus [6])	Activity (Oryctolagus cuniculus)
CCN(CC)CCOCC(O)(c1ccccc1)c1ccccc1 [listing 1 of 3 here]	0	0	38	0	–	–	–
CCN(CC)CCOCC(O)(c1ccccc1)c1ccccc1 [listing 2 of 3 here]	–	–	–	–	5.6	–	–
C[N+]1(C)CCCC(OCC(O)(c2ccccc2)c2ccccc2)C1 (configuration not stated)	–	–	–	–	–	5.68	–
C=CCN(C)CCOCC(O)(c1ccccc1)c1ccccc1	0	17	79	25	–	4.09	–
CN1CCC(OCC(O)(c2ccccc2)c2ccccc2)CC1 [listing 1 of 3 here]	–	–	–	–	–	6.24	–
C[N+]12CCC(CC1)C(OCC(O)(c1ccccc1)c1ccccc1)C2 (configuration not stated)	–	–	–	–	–	6.18	–
CCN(CC)CCOC(=O)C(O)(c1ccccc1)c1ccccc1.Cl	–	–	–	–	0.26	–	inactive
CN1CCC(OCC(O)(c2ccccc2)c2ccccc2)CC1 [listing 2 of 3 here]	–	–	–	–	3.1	–	–
CC[N+](C)(CC)CCOCC(O)(c1ccccc1)c1ccccc1	–	–	–	–	–	6.92	–
CN1CCCC(OCC(O)(c2ccccc2)c2ccccc2)C1 (configuration not stated)	17	54	92	67	–	4.9	–
CCN(CC)CCOCC(O)(c1ccccc1)c1ccccc1 [listing 3 of 3 here]	–	–	–	–	–	4.92	inactive
CN1CCC(OCC(O)(c2ccccc2)c2ccccc2)CC1 [listing 3 of 3 here]	0	7	80	37	–	–	–
CN(C)CCCOCC(O)(c1ccccc1)c1ccccc1	17	54	100	71	–	5.02	–
CN1[C@@H]2CC[C@H]1C[C@H](OC(=O)C(CO)c1ccccc1)C2 (some centres not stated)	27	30	87	56	–	7.3	–
C=CCN(CC)CCOCC(O)(c1ccccc1)c1ccccc1	0	0	8	0	–	5.13	–
CN1[C@@H]2C[C@@H](OC(=O)[C@H](CO)c3ccccc3)C[C@H]1[C@@H]1O[C@@H]12 [SCOPOLAMINE HYDROBROMIDE]	71	83	96	96	–	5.31	–
CC[N+]1(C)CCCC(OCC(O)(c2ccccc2)c2ccccc2)C1 (configuration not stated)	–	–	–	–	–	5	–
C[N+]1(C)CCC(OCC(O)(c2ccccc2)c2ccccc2)CC1	–	–	–	–	–	7.26	–
C[N+](C)(C)CCOCC(O)(c1ccccc1)c1ccccc1	–	–	–	–	–	5.49	–
CN(C)CCOCC(O)(c1ccccc1)c1ccccc1	8	21	75	21	–	4.68	–
OC(COC1CN2CCC1CC2)(c1ccccc1)c1ccccc1 (configuration not stated)	48	56	96	85	–	6.58	inactive
CCN1CCCC(OCC(O)(c2ccccc2)c2ccccc2)C1 (configuration not stated)	0	0	12	0	–	4.95	–
CN1CCC(OCC(O)(c2ccccc2)c2ccccc2)C1 (configuration not stated)	0	8	50	21	–	5.58	–

Reference: ChEMBL document CHEMBL3272079, “Synthesis and preliminary pharmacological activity of aminoalkoxy isosteres of glycolate ester anticholinergics” (J Med Chem, 1977)
